Laboratory results reported in the supplement of paper PMC4121296.
± gives the standard deviation of the averaged measurements.

Tests used:
Conditions in all cases: exposure: 5-72 hpf
[1] = system: Danio rerio embryo (fli1:egfp); assay: heart rate at 72 hpf (beats per minute); higher = faster heart rate
Description: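 fli1:egfp zebrafish embryos exposed 5-72 hpf to chemical (0.05-50 µM, 0.1% DMSO) in 384-well plates; heart rate at 72 hpf quantified from stream acquisitions by semi-automated MetaXpress journal (peak counting); only embryos in concentrations passing survival/body-length criteria analyzed.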

[2] = system: Danio rerio embryo (fli1:egfp); assay: body length at 72 hpf (µm); higher = longer body (less growth inhibition)
Description: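 Transgenic fli1:egfp zebrafish embryos (one per well, 384-well plate) exposed statically from 5 to 72 hpf at 28 °C to chemical (0.05-50 µM, 0.1% DMSO); at 72 hpf anesthetized and imaged on ImageXpress; body length of live, hatched, correctly oriented embryos measured by automated MetaXpress journal. Dead/unhatched/misoriented embryos have no value.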

[3] = system: Danio rerio embryo (fli1:egfp); assay: pericardial area at 72 hpf (image area units (not stated)); higher = larger pericardial area (edema)
Description: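 fli1:egfp zebrafish embryos exposed 5-72 hpf to chemical (0.05-50 µM, 0.1% DMSO); pericardial area at 72 hpf measured by semi-automated MetaXpress journal (increase indicates edema).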

[4] = system: Danio rerio embryo (fli1:egfp); assay: arterial (dorsal aorta) circulation score at 72 hpf (normalized DA-Max (arbitrary units)); higher = more circulation
Description: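 fli1:egfp zebrafish embryos exposed 5-72 hpf to chemical (0.05-50 µM, 0.1% DMSO); arterial circulation at 72 hpf quantified from stream acquisitions of the dorsal aorta by FFT-based analysis (DA-Max, normalized dorsal aorta signal); only concentrations passing survival/body-length criteria analyzed.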

[5] = system: Danio rerio embryo (fli1:egfp); assay: intersegmental vessel area normalized to body length at 72 hpf (ISV area / body length (normalized units)); higher = more vessel area
Description: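 fli1:egfp zebrafish embryos exposed 5-72 hpf to chemical (0.05-50 µM, 0.1% DMSO); intersegmental vessel (ISV) eGFP area quantified by MetaXpress journal at 72 hpf and normalized to body length.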

CCOC(=O)C(C)OC(=O)c1cc(Oc2ccc(C(F)(F)F)cc2Cl)ccc1[N+](=O)[O-] (stereo not given) [Lactofen]
Conditions | arterial, [4] | body length at 72 hpf, [2] | heart rate at 72 hpf, [1] | intersegmental vessel area normalized, [5] | pericardial area at 72 hpf, [3]
0.05 µM | 8.21 ± 2.9 | 3000 ± 200 | 189 ± 13 | 84.8 ± 18 | 13400 ± 4500
0.098 µM | 7.39 ± 2.9 | 3000 ± 76 | 187 ± 15 | 87.9 ± 14 | 17300 ± 4400
0.195 µM | 8.26 ± 3.4 | 2990 ± 150 | 191 ± 14 | 81.5 ± 23 | 15800 ± 5200
0.39 µM | 8.42 ± 2.9 | 2940 ± 140 | 188 ± 14 | 83.3 ± 24 | 15800 ± 4700
0.78 µM | 5.92 ± 2.7 | 2950 ± 140 | 191 ± 15 | 82.4 ± 19 | 19300 ± 9600
1.56 µM | 6.43 ± 2.5 | 2980 ± 160 | 193 ± 15 | 85.2 ± 18 | 19800 ± 11000
3.125 µM | 5.46 ± 2.5 | 2960 ± 160 | 190 ± 20 | 88 ± 20 | 21500 ± 7200
6.25 µM | 4.85 ± 1.7 | 2910 ± 140 | 188 ± 13 | 92.9 ± 12 | 21200 ± 5700
12.5 µM | 4.13 ± 1.4 | 2910 ± 130 | 187 ± 25 | 99.7 ± 7.6 | 23900 ± 11000
